Reference: patent publication US20240172750A1, “5-Fluoro-4-Imino-3-Methyl-1-Tosyl-3,4-Dihydropyrimidin-2(1H)-One for Controlling Plant Diseases” (Adama Makhteshim Ltd., priority 2021, published 2024)

Legend:
[1] = system: Eisenia fetida; assay: Ecotoxicity: earthworms, long-term; assay type: in vivo
From the text: (§1) The ecotoxicity of flumetylsulforim was investigated in numerous studies in accordance with the strict requirements for the approval of active substances in the EU.

[2] = system: Botrytis cinerea; assay: Grey mould in strawberry, pot trial, foliar treatment; assay type: in vivo; details: 250 OD at 450 g ai/ha, 3 applications, last assessment
Method: The compound of formula I 250 OD was tested at different doses, namely 400, 450 and 500 g ai/ha as depicted in the table below and compared to an untreated control as well as two reference products, SCALA (pyrimethanil 400 g/L) at 1000 g ai/ha and SIGNUM (boscalid+pyraclostrobin 26.7+[…]) at 600 g ai/ha.
Botrytis cinerea was artificial inoculated by spraying the inoculum on the leaves 3-4 days before the application.
To test for fungicidal control of Botrytis cinerea, the strawberry plants, grown in pots, were sprayed with each of the above treatments. 5 pots of 22 cm of diameter (the soil used for the trial is a mix of peat and perlite) with 1 plant each were used, 1 pot per replicate (each treatment is made of 4 replicates) was considered.
Each of the treatments was applied 3 times (ABC) according to the disease development as follows: A, early curative (before the disease symptoms appear; 3-4 days after the artificial inoculation), B, 7-10 days from A and C, to be evaluated in function of the disease development (7-10 days from B).
At the first symptoms the following parameters were assessed: • percentage of affected leaf area (% severity) • percentage of affected leaves (% incidence) • percentage of affected fruit area (% severity) • percentage of affected fruits (% incidence)

[3] = system: Rat; assay: Ecotoxicity: mammals, acute; assay type: in vivo
From the text: as §1

[4] = system: Pseudoperonospora cubensis (downy mildew); assay: Glasshouse trial, downy mildew in cucumber, foliar treatment; assay type: in vivo; details: cucumber (Bosco); 250 OD at 100, 125, 150, 200 g ai/ha, 3 applications; 21 DA-C
Method: The trial was carried out in a commercial glasshouse in Vittoria (RG)—Sicily region (Southern Italy) to evaluate the efficacy against Pseudoperonospora cubensis (downy mildew) and the selectivity on cucumber (Bosco variety) of ADF-16 250 OD at 100, 125, 150 and 200 g ai/ha in comparison to AIRONE PIU at 630 g ai/ha and EQUATION PRO at 21 g ai/ha.
Each plot (2 m×5 m, 2 rows per plot) consisted of at least 10 plants and 4 replicates per treatment were carried out. The soil used for the trial was a mix of peat and perlite. 3 applications were carried out as follows: A: early curative (disease symptoms lower than 5%), B: 7-10 days from A and C: 7-10 days from B. The corresponding treatments dates were: 16 Nov. 2020 (BBCH 64), 23 Nov. 2020 (BBCH 65) and 30th of November (BBCH 67)
The application was carried out with a backpack sprayer OleomacSP126 and a water volume of 1000 L/ha.
Phytotoxicity, if any, was assessed 7, 14 and 21 days form each application and starting from the first symptoms the percentage of affected leaf area (% severity) as well as the percentage of affected leaves (% incidence) was measured.

[5] = system: Honeybee; assay: Ecotoxicity: honeybee, chronic oral; assay type: in vivo
From the text: as §1

[6] = system: M. fijiensis; assay: Black sigatoka on banana plants in climatic chamber; assay type: in vivo, Mycosphaerella fijiensis
Method: The banana plants used for this experimentation were obtained from vitro-plants Cavendish type furnished by VITROPIC S.A. (France). One-month old plants (2 fully deployed leaves: F2 (oldest leaf) and F1 and the cigar leaf) are treated (see details in the table below) were inoculated with a calibrated mycelial seed-inoculum of a mixture of 4 M. fijiensis strains (for each treatment, 3 repetitions (banana plants) are considered). Banana leaves of each plant were treated on their upper (adaxial) and lower (abaxial) face and then incubated for one hour under a laminar flow in order to let dry the fungicide droplets. After inoculation, banana plants were transferred in climatic chamber: 25° C. day/18° C. night, photoperiod of 16 h light/8 h dark and 100% Relative Humidity. From 28 days to 56 days post inoculation (dpi) each banana plants is observed and the disease intensity severity (DSI: Disease Severity Index) is evaluated over time in order to determine the AUDPC (Area Under Disease Progress Curve)—Table 12, and the fungicidal efficacy expressed in percent of the untreated control—Table 13.

[7] = system: Predatory mite; assay: Ecotoxicity: non-target arthropods, reproduction; assay type: in vivo; details: wheats and barley at 2 × 100 g/ha
From the text: as §1

[8] = system: Parasitoid wasp; assay: Ecotoxicity: non-target arthropods, reproduction; assay type: in vivo
From the text: as §1

[9] = system: Honeybee; assay: Ecotoxicity: honeybee, chronic larvae; assay type: in vivo
From the text: as §1

[10] = system: Rainbow trout; assay: Ecotoxicity: fish, long-term; assay type: in vivo
From the text: as §1

[11] = system: Soybean; assay: Non-target terrestrial plants, vegetative vigour; assay type: in vivo
From the text: as §1

[12] = system: Sunflower; assay: Non-target terrestrial plants, vegetative vigour; assay type: in vivo
From the text: as §1

[13] = system: Sugar beet; assay: Non-target terrestrial plants, vegetative vigour; assay type: in vivo
From the text: as §1

[14] = system: Oil seed rape; assay: Non-target terrestrial plants, vegetative vigour; assay type: in vivo
From the text: as §1

[15] = system: Common oat; assay: Non-target terrestrial plants, vegetative vigour; assay type: in vivo
From the text: as §1

[16] = system: Cucumber; assay: Non-target terrestrial plants, vegetative vigour; assay type: in vivo
From the text: as §1

[17] = system: Onion; assay: Non-target terrestrial plants, vegetative vigour; assay type: in vivo
From the text: as §1

[18] = system: Ryegrass; assay: Non-target terrestrial plants, vegetative vigour; assay type: in vivo
From the text: as §1

[19] = system: Carrot; assay: Non-target terrestrial plants, vegetative vigour; assay type: in vivo
From the text: as §1

[20] = system: Maize; assay: Non-target terrestrial plants, vegetative vigour; assay type: in vivo
From the text: as §1

[21] = system: Bobwhite quail; assay: Ecotoxicity: birds, acute; assay type: in vivo
From the text: as §1

[22] = wheats and barley at 2 × 100 g/ha

In the case of Cc1ccc(S(=O)(=O)n2cc(F)c(=N)n(C)c2=O)cc1 [compound of formula I, 5-fluoro-4-imino-3-methyl-1-tosyl-3,4-dihydropyrimidin-2(1H)-one], the NOEC [1] is reported as “NOEC = 309 mg/kg dws”, the “Risk at current use pattern” value [1, 22] is reported as “Acceptable” and the “control (fungicide efficacy on leaf severity)” value [2] is reported as “more than 90%”. The LD50 [3] was “LD50 > 2000 mg/kg bw”, the “Risk at current use pattern” value [3, 22] was “Acceptable” and the “control of the disease (downy mildew)” value [4] was “significant control of the disease”. The LD50 [5] was “LD50 = 16.0 μg/bee/d”, the “control of Mycosphaerella fijiensis in banana (conclusion)” value [6] was “efficiently controlling” and the “Risk at current use pattern” value [7] was “Acceptable”. For the same compound, the LR50 [8] was “LR50 > 189 g/ha”, the “Risk at current use pattern” value [8, 22] was “Acceptable” and the NOEC [9] was “NOEC > 250 mg/kg diet”. For the same compound, the “Risk at current use pattern” value [9, 22] was “Acceptable”, the NOEC [10] was “NOEC = 0.128 mg/L” and the “Risk at current use pattern” value [10, 22] was “Acceptable”. For the same compound, the ER50 [11] was “ER50 > 189 g/ha”, the “Risk at current use pattern” value [11, 22] was “Acceptable” and the ER50 [12] was “ER50 > 189 g/ha”. The “Risk at current use pattern” value [12, 22] was “Acceptable”, the ER50 [13] was “ER50 > 189 g/ha” and the “Risk at current use pattern” value [13, 22] was “Acceptable”. The ER50 [14] was “ER50 > 189 g/ha”, the “Risk at current use pattern” value [14, 22] was “Acceptable” and the ER50 [15] was “ER50 > 189 g/ha”. The “Risk at current use pattern” value [15, 22] was “Acceptable”, the ER50 [16] was “ER50 > 189 g/ha” and the “Risk at current use pattern” value [16, 22] was “Acceptable”. For the same compound, the ER50 [17] was “ER50 > 189 g/ha”, the “Risk at current use pattern” value [17, 22] was “Acceptable” and the ER50 [18] was “ER50 > 189 g/ha”. The “Risk at current use pattern” value [18, 22] was “Acceptable”, the ER50 [19] was “ER50 > 189 g/ha” and the “Risk at current use pattern” value [19, 22] was “Acceptable”. For the same compound, the ER50 [20] was “ER50 > 189 g/ha”, the “Risk at current use pattern” value [20, 22] was “Acceptable” and the LD50 [21] was “LD50 > 2000 mg/kg bw”.
